Test results from paper PMC12036814 (Angewandte Chemie (International Ed. in English), 2025).
Where two headings read alike, the source gives them in different places.

Legend:
Experiment in all cases: Thermal protein profiling (TPP) in intact HEK293 cells
Format in all cases: cell-based
Settings in all cases: 1 h
ULK3 = biological target: T1, ULK3 (Homo sapiens, UniProt Q6PHR2)
T1 construct: endogenous in cells; host or cells: HEK293
T1 sequence (Q6PHR2 1-472): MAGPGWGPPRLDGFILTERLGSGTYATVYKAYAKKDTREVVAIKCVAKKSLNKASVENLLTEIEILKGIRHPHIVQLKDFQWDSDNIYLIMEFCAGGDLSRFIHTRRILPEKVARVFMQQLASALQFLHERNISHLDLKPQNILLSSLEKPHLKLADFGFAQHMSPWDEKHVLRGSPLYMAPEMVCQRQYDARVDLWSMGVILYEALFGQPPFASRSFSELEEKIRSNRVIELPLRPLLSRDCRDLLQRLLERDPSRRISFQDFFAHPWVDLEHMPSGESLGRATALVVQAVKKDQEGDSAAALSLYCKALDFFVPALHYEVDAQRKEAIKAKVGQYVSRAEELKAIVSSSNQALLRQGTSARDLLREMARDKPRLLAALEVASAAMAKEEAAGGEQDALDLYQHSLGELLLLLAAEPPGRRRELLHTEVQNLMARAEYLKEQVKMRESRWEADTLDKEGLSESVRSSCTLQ
Protocol: (§1) incubated in a thermoshaker (600 rpm, 16 h, 37 °C). The digest was stopped by adding 10 μL formic
(§2) acid (FA) and vortexing followed by centrifugation (12,000 ×g, 3 min, room temperature). 50 mg
(§3) SepPak C18 columns (Waters, Milford, USA, Cat# WAT054960) were equilibrated by gravity flow two
(§4) times with 1 mL acetonitrile and three times with 1 mL aqueous 0.1% trifluoroacetic acid (TFA) solution.
(§5) Subsequently, the samples were loaded by gravity flow, washed three times with 1 mL aqueous 0.1%
(§6) TFA solution and once with 0.5 mL aqueous 0.5% formic acid (F A) solution. Elution of peptides into
(§7) new 2.0 mL Protein LoBind Eppendorf tubes was performed by two times addition of 250 μL elution
(§8) buffer (80% acetonitrile, 0.5% FA) by gravity flow followed by 250 μL elution buffer by vacuum flow
(§9) until all liquid was eluted from the column. The eluates were lyophilized. Before MS measurement the
(§10) (brief centrifugation after each step).
(§11) Thermal protein profiling (TPP)
(§12) The experiment was performed similarly to TPP-TR experiments described by Franken et al. with minor
(§13) modifications.5 HEK293 cells were grown in 8 T175 flasks to approx. 80-90% confluency. Per replicate
(§14) volume of 0.1 N HCl as vehicle control. Per condition two replicates were used, leading to a total of 8
(§15) T175 flasks. The cells were washed with PBS, detached with accutase, the two flask per replicate
(§16) condition combined and the cells pelletized (500 ×g, 3 min, r.t.). The medium was removed and each
(§17) pellet (Cipro #1, Cipro #2, Ctrl. #1, Ctrl #2) washed twice with cold PBS. Each pellet was resuspended
(§18) depending on the sample. The cell suspension of each sample was distributed into 10 PCR tubes
(§19) (100 µL per tube), resulting in 10 stripes á 4 tubes (2×2 conditions, 10 temperature points). The PCR
(§20) tubes were subjected to the temperature gradient using a PCR cycler.
(§21) limitations, two separate programs had to be run to cover the desired temperature range (see
(§22) Table S4). The PCR tubes were heat-treated according to the two programs for 3 min and directly snap
(§23) frozen in liquid nitrogen.
(§24) manufacturer instructions.

SMG7 = biological target: T2, SMG7 (Homo sapiens, UniProt Q92540)
T2 construct: endogenous in cells; host or cells: HEK293
T2 sequence (Q92540 1-1137): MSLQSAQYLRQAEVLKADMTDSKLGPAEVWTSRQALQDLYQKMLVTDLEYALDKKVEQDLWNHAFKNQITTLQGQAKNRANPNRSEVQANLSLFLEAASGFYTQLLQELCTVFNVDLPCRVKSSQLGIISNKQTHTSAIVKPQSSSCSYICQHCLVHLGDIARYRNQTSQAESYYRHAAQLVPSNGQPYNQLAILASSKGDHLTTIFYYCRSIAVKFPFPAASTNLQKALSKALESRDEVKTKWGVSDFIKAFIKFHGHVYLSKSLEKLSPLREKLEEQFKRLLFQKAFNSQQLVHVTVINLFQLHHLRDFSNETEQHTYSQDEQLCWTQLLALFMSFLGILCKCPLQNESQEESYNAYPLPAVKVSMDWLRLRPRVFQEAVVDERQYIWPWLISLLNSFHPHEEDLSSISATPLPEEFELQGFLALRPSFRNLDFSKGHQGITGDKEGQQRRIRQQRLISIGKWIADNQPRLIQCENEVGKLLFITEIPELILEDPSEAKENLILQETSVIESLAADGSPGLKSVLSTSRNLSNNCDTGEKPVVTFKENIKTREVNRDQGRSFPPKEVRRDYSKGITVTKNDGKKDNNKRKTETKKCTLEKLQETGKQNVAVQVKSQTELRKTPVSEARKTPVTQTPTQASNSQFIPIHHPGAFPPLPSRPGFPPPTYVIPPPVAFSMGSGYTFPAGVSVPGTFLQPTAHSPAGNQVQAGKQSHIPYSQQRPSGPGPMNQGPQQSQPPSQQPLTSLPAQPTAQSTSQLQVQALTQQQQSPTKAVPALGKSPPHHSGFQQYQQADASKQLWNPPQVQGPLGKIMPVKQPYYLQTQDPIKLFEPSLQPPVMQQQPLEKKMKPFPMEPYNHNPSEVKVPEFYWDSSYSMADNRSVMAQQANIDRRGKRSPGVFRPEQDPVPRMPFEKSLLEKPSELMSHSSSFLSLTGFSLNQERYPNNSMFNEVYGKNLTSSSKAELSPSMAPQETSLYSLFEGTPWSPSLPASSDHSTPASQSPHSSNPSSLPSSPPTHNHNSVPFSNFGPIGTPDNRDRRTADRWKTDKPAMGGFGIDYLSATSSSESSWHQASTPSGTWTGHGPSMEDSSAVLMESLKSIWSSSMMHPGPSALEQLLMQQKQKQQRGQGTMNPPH
Protocol: as §1, §2, §3, §4, §5, §6, §7, §8, §9, §10, §11, §12, §13, §14, §15, §16, §17, §18, §19, §20, §21, §22, §23, §24

ADAL = biological target: T3, ADAL (Homo sapiens, UniProt Q6DHV7)
T3 construct: endogenous in cells; host or cells: HEK293
T3 sequence (Q6DHV7 1-355): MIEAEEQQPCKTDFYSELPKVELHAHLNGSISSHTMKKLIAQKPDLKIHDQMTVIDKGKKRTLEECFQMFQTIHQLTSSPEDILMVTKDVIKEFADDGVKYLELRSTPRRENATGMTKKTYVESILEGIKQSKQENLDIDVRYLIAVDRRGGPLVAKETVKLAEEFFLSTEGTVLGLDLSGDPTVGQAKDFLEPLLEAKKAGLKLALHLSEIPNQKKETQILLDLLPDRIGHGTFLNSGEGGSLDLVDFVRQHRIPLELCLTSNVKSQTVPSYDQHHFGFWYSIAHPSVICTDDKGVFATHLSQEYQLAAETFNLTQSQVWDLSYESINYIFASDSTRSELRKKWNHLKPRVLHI
Protocol: as §1, §2, §3, §4, §5, §6, §7, §8, §9, §10, §11, §12, §13, §14, §15, §16, §17, §18, §19, §20, §21, §22, §23, §24

Structure (SMILES): O=C(O)c1cn(C2CC2)c2cc(N3CCNCC3)c(F)cc2c1=O [Ciprofloxacin]
- ΔTm at 70 µM (ULK3; read-out: ΔTm Rep. 1): 1.72 °C
- ΔTm at 70 µM (ULK3; read-out: ΔTm Rep. 2): 4.39 °C
- ΔTm at 70 µM (SMG7; read-out: ΔTm Rep. 1): 1.67 °C
- ΔTm at 70 µM (SMG7; read-out: ΔTm Rep. 2): 3.28 °C
- ΔTm at 70 µM (ADAL; read-out: ΔTm Rep. 1): 5.91 °C
- ΔTm at 70 µM (ADAL; read-out: ΔTm Rep. 2): 6.21 °C
